Measured values from US8318746B2, “Nitrogen-containing five-membered heterocyclic compound” (Takeda Pharmaceutical Company Limited, priority 2007, dated 2012).
Where a name gives a salt, the structure may show the parent alone.

Row | Compound | melting point
1 | Cl.O=C1CCN(Cc2cnc(-c3ccc(C(CC4CCOCC4)c4ccc(S(=O)(=O)C5CC5)cc4)[nH]3)s2)CC1 (stereo not shown) | 146 to 148 °C
2 | O=C(O)CCc1cnc(-c2ccc(C(CC3CCOCC3)c3ccc(S(=O)(=O)C4CC4)cc3)[nH]2)s1 (stereo not shown) (as salt: calcium) [Example 163, 3-[2-(5-{1-[4-(cyclopropylsulfonyl)phenyl]-2-(tetrahydro-2H-pyran-4-yl)ethyl}-1H-pyrrol-2-yl)-1,3-thiazol-5-yl]propanoic acid 1/2 calcium salt] | > 194 °C (dec.)
3 | CC(c1cnc(-c2ccc(C(CC3CCOCC3)c3ccc(S(=O)(=O)C4CC4)cc3)[nH]2)s1)N(C)C (stereo not shown) (as salt: hydrochloride) [Example 157, 1-[2-(5-{1-[4-(cyclopropylsulfonyl)phenyl]-2-(tetrahydro-2H-pyran-4-yl)ethyl}-1H-pyrrol-2-yl)-1,3-thiazol-5-yl]-N,N-dimethylethanamine dihydrochloride] | 147 to 148 °C
4 | O=C1CC[C@H](CC(c2ccc(S(=O)(=O)C3CC3)cc2)c2ccc(-c3nccs3)[nH]2)C1 (stereo partly drawn) [Example 102, (3R)-3-{2-[4-(cyclopropylsulfonyl)phenyl]-2-[5-(1,3-thiazol-2-yl)-1H-pyrrol-2-yl]ethyl}cyclopentanone] | 165 to 167 °C
5 | CCOC(=O)c1cc(-c2nccs2)[nH]c1C(CC1CCOCC1)c1ccc(S(=O)(=O)C2CC2)cc1 (stereo not shown) [Example 103, Ethyl 2-{1-[4-(cyclopropylsulfonyl)phenyl]-2-(tetrahydro-2H-pyran-4-yl)ethyl}-5-(1,3-thiazol-2-yl)-1H-pyrrole-3-carboxylate] | 178 to 179 °C
6 | O=C(O)c1cc(-c2nccs2)[nH]c1C(CC1CCOCC1)c1ccc(S(=O)(=O)C2CC2)cc1 (stereo not shown) [Example 104, 2-{1-[4-(cyclopropylsulfonyl)phenyl]-2-(tetrahydro-2H-pyran-4-yl)ethyl}-5-(1,3-thiazol-2-yl)-1H-pyrrole-3-carboxylic acid] | 153 to 155 °C
7 | CN(C)C(=O)c1cc(-c2nccs2)[nH]c1C(CC1CCOCC1)c1ccc(S(=O)(=O)C2CC2)cc1 (stereo not shown) [Example 105, 2-{1-[4-(cyclopropylsulfonyl)phenyl]-2-(tetrahydro-2H-pyran-4-yl)ethyl}-N,N-dimethyl-5-(1,3-thiazol-2-yl)-1H-pyrrole-3-carboxamide] | 180 to 182 °C
8 | N#Cc1cc(-c2nccs2)[nH]c1C(CC1CCOCC1)c1ccc(S(=O)(=O)C2CC2)cc1 (stereo not shown) [Example 107, 2-{1-[4-(cyclopropylsulfonyl)phenyl]-2-(tetrahydro-2H-pyran-4-yl)ethyl}-5-(1,3-thiazol-2-yl)-1H-pyrrole-3-carbonitrile] | 114 to 116 °C
9 | COC(=O)c1ccc(-c2ccc(C(CC3CCOCC3)c3ccc(S(=O)(=O)C4CC4)cc3)[nH]2)nc1 (stereo not shown) [Example 118, Methyl 6-(5-{1-[4-(cyclopropylsulfonyl)phenyl]-2-(tetrahydro-2H-pyran-4-yl)ethyl}-1H-pyrrol-2-yl)pyridine-3-carboxylate] | 150 to 152 °C
10 | O=C(NC1CC1)c1ccc(-c2ccc(C(CC3CCOCC3)c3ccc(S(=O)(=O)C4CC4)cc3)[nH]2)nc1 (stereo not shown) [Example 119, N-cyclopropyl-6-(5-{1-[4-(cyclopropylsulfonyl)phenyl]-2-(tetrahydro-2H-pyran-4-yl)ethyl}-1H-pyrrol-2-yl)pyridine-3-carboxamide] | 134 to 136 °C
11 | O=C(c1ccc(-c2ccc(C(CC3CCOCC3)c3ccc(S(=O)(=O)C4CC4)cc3)[nH]2)nc1)N1CCC1 (stereo not shown) [Example 120] | 109 to 110 °C
12 | O=C(c1ccc(-c2ccc(C(CC3CCOCC3)c3ccc(S(=O)(=O)C4CC4)cc3)[nH]2)nc1)N1CCOCC1 (stereo not shown) [Example 121, 5-(morpholin-4-ylcarbonyl)-2-(5-[1-[4-(cyclopropylsulfonyl)phenyl]-2-(tetrahydro-2H-pyran-4-yl)ethyl]-1H-pyrrol-2-yl)pyridine] | 114 to 116 °C
13 | NC(=O)c1ccc(-c2ccc(C(CC3CCOCC3)c3ccc(S(=O)(=O)C4CC4)cc3)[nH]2)nc1 (stereo not shown) [Example 124, 6-(5-{1-[4-(cyclopropylsulfonyl)phenyl]-2-(tetrahydro-2H-pyran-4-yl)ethyl}-1H-pyrrol-2-yl)pyridine-3-carboxamide] | 136 to 138 °C
14 | CC(C)(O)c1ccc(-c2ccc(C(CC3CCOCC3)c3ccc(S(=O)(=O)C4CC4)cc3)[nH]2)nc1 (stereo not shown) [Example 125, 2-[6-(5-{1-[4-(cyclopropylsulfonyl)phenyl]-2-(tetrahydro-2H-pyran-4-yl)ethyl}-1H-pyrrol-2-yl)pyridin-3-yl]propan-2-ol] | 112 to 114 °C
15 | O=C(O)Cc1ccc(-c2ccc(C(CC3CCOCC3)c3ccc(S(=O)(=O)C4CC4)cc3)[nH]2)nc1 (stereo not shown) [Example 129, [6-(5-{1-[4-(cyclopropylsulfonyl)phenyl]-2-(tetrahydro-2H-pyran-4-yl)ethyl}-1H-pyrrol-2-yl)pyridin-3-yl]acetic acid] | 124 to 127 °C
16 | O=C(Cc1ccc(-c2ccc(C(CC3CCOCC3)c3ccc(S(=O)(=O)C4CC4)cc3)[nH]2)nc1)N1CCOCC1 (stereo not shown) [Example 130, 4-{[6-(5-{1-[4-(cyclopropylsulfonyl)phenyl]-2-(tetrahydro-2H-pyran-4-yl)ethyl}-1H-pyrrol-2-yl)pyridin-3-yl]acetyl}morpholine] | 202 to 203 °C
17 | O=C(Cc1ccc(-c2ccc(C(CC3CCOCC3)c3ccc(S(=O)(=O)C4CC4)cc3)[nH]2)nc1)N1CCC1 (stereo not shown) [Example 131, 5-(2-(azetidin-1-yl)-2-oxoethyl)-2-(5-{1-[4-(cyclopropylsulfonyl)phenyl]-2-(tetrahydro-2H-pyran-4-yl)ethyl}-1H-pyrrol-2-yl)pyridine] | 94 to 98 °C
18 | CC(C)(O)C(O)c1ccc(-c2ccc(C(CC3CCOCC3)c3ccc(S(C)(=O)=O)c(Cl)c3)[nH]2)nc1 (stereo not shown) [Example 133, 1-[6-(5-{1-[3-chloro-4-(methylsulfonyl)phenyl]-2-(tetrahydro-2H-pyran-4-yl)ethyl}-1H-pyrrol-2-yl)pyridin-3-yl]-2-methylpropane-1,2-diol] | 138 to 140 °C
19 | CS(=O)(=O)c1ccc(C(CC2CCOCC2)c2ccc(-c3ccccn3)[nH]2)cn1 (stereo not shown) [Example 137, 2-(methylsulfonyl)-5-[1-(5-(pyridin-2-yl)-1H-pyrrol-2-yl)-2-(tetrahydro-2H-pyran-4-yl)ethyl]pyridine] | 89 to 90 °C
20 | O=C(O)Cc1cnc(-c2ccc(C(CC3CCOCC3)c3ccc(S(=O)(=O)C4CC4)cc3)[nH]2)s1 (stereo not shown) [Example 149, [2-(5-{1-[4-(cyclopropylsulfonyl)phenyl]-2-(tetrahydro-2H-pyran-4-yl)ethyl}-1H-pyrrol-2-yl)-1,3-thiazol-5-yl]acetic acid] | 246 to 247 °C (dec.)
21 | O=Cc1cnc(-c2ccc(C(CC3CCOCC3)c3ccc(S(=O)(=O)C4CC4)cc3)[nH]2)s1 (stereo not shown) [Example 158, 2-(5-{1-[4-(cyclopropylsulfonyl)phenyl]-2-(tetrahydro-2H-pyran-4-yl)ethyl}-1H-pyrrol-2-yl)-1,3-thiazole-5-carbaldehyde] | 175 to 176 °C

More lines, now with the values ahead:

Row | melting point | Compound
22 | 156 to 158 °C | CC(=O)N1CCN(Cc2cnc(-c3ccc(C(CC4CCOCC4)c4ccc(S(=O)(=O)C5CC5)cc4)[nH]3)s2)CC1.Cl (stereo not shown)
23 | 241 to 243 °C | NC(=O)c1cc(-c2nccs2)[nH]c1C(CC1CCOCC1)c1ccc(S(=O)(=O)C2CC2)cc1 (stereo not shown) [Example 106, 2-{1-[4-(cyclopropylsulfonyl)phenyl]-2-(tetrahydro-2H-pyran-4-yl)ethyl}-5-(1,3-thiazol-2-yl)-1H-pyrrole-3-carboxamide]
24 | 110 to 112 °C | CC(C)(O)COc1ccc(-c2ccc(C(CC3CCOCC3)c3ccc(S(=O)(=O)C4CC4)cc3)[nH]2)nc1 (stereo not shown) [Example 116, 1-{[6-(5-{1-[4-(cyclopropylsulfonyl)phenyl]-2-(tetrahydro-2H-pyran-4-yl)ethyl}-1H-pyrrol-2-yl)pyridin-3-yl]oxy}-2-methylpropan-2-ol]
25 | 116 to 118 °C | CC(O)COc1ccc(-c2ccc(C(CC3CCOCC3)c3ccc(S(=O)(=O)C4CC4)cc3)[nH]2)nc1 (stereo not shown) [Example 117, 1-{[6-(5-{1-[4-(cyclopropylsulfonyl)phenyl]-2-(tetrahydro-2H-pyran-4-yl)ethyl}-1H-pyrrol-2-yl)pyridin-3-yl]oxy}propan-2-ol]
26 | 87 to 90 °C | CCOCCNC(=O)c1ccc(-c2ccc(C(CC3CCOCC3)c3ccc(S(=O)(=O)C4CC4)cc3)[nH]2)nc1 (stereo not shown) [Example 122, 6-(5-{1-[4-(cyclopropylsulfonyl)phenyl]-2-(tetrahydro-2H-pyran-4-yl)ethyl}-1H-pyrrol-2-yl)-N-(2-ethoxyethyl)pyridine-3-carboxamide]
27 | 126 to 128 °C | CC(C)(O)CNC(=O)c1ccc(-c2ccc(C(CC3CCOCC3)c3ccc(S(=O)(=O)C4CC4)cc3)[nH]2)nc1 (stereo not shown) [Example 123, 6-(5-[1-[4-(cyclopropylsulfonyl)phenyl]-2-(tetrahydro-2H-pyran-4-yl)ethyl]-1H-pyrrol-2-yl)-N-(2-hydroxy-2-methylpropyl)pyridine-3-carboxamide]
28 | 114 to 116 °C | CC(C)=Cc1ccc(-c2ccc(C(CC3CCOCC3)c3ccc(S(=O)(=O)C4CC4)cc3)[nH]2)nc1 (stereo not shown) [Example 126, 2-(5-{1-[4-(cyclopropylsulfonyl)phenyl]-2-(tetrahydro-2H-pyran-4-yl)ethyl}-1H-pyrrol-2-yl)-5-(2-methylprop-1-en-1-yl)pyridine]
29 | 139 to 141 °C | N#CCc1ccc(-c2ccc(C(CC3CCOCC3)c3ccc(S(=O)(=O)C4CC4)cc3)[nH]2)nc1 (stereo not shown) [Example 128, [6-(5-{1-[4-(cyclopropylsulfonyl)phenyl]-2-(tetrahydro-2H-pyran-4-yl)ethyl}-1H-pyrrol-2-yl)pyridin-3-yl]acetonitrile]
30 | 151 to 153 °C | NC(=O)Cc1ccc(-c2ccc(C(CC3CCOCC3)c3ccc(S(=O)(=O)C4CC4)cc3)[nH]2)nc1 (stereo not shown) [Example 132, 2-[6-(5-{1-[4-(cyclopropylsulfonyl)phenyl]-2-(tetrahydro-2H-pyran-4-yl)ethyl}-1H-pyrrol-2-yl)pyridin-3-yl]acetamide]
31 | 184 to 185 °C | O=C1CN(Cc2cnc(-c3ccc(C(CC4CCOCC4)c4ccc(S(=O)(=O)C5CC5)cc4)[nH]3)s2)C(=O)N1 (stereo not shown) [Example 147, 1-{[2-(5-{1-[4-(cyclopropylsulfonyl)phenyl]-2-(tetrahydro-2H-pyran-4-yl)ethyl}-1H-pyrrol-2-yl)-1,3-thiazol-5-yl]methyl}imidazolidine-2,4-dione]
